Assays:
Test in all cases: relative viability (nuclei count vs DMSO), 5 days (fraction); higher = more cells survive
MK-8033 + Vorinostat = compound: Cn1cc(-c2cnc3ccc4ccc(CS(=O)(=O)NCc5ccccn5)cc4c(=O)c3c2)cn1 [MK-8033] + O=C(CCCCCCC(=O)Nc1ccccc1)NO [Vorinostat] (partner 1 µM)
Summary of the method: (§1)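 Relative viability equals treated-well nuclei counts divided by vehicle-well nuclei counts. Counts came from 4× images of lung cancer cell lines grown in 1536-well plates for 5 days after pin-tool dosing on the day after seeding. Dosing used one drug alone or a fixed anchor-drug dose plus five library-drug doses (not always all listed) in √10 steps, and values are medians of duplicate plates.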

MK-8033 + Decitabine = compound: Cn1cc(-c2cnc3ccc4ccc(CS(=O)(=O)NCc5ccccn5)cc4c(=O)c3c2)cn1 [MK-8033] + Nc1ncn([C@H]2C[C@H](O)[C@@H](CO)O2)c(=O)n1 [Decitabine] (partner 2 µM)
Summary of the method: as §1

MK-8033 + AZD7762 = compound: Cn1cc(-c2cnc3ccc4ccc(CS(=O)(=O)NCc5ccccn5)cc4c(=O)c3c2)cn1 [MK-8033] + NC(=O)Nc1cc(-c2cccc(F)c2)sc1C(=O)N[C@H]1CCCNC1 [AZD7762] (partner 0.2 µM)
Summary of the method: as §1

Irinotecan + Navitoclax = compound: CCc1c2c(nc3ccc(OC(=O)N4CCC(N5CCCCC5)CC4)cc13)-c1cc3c(c(=O)n1C2)COC(=O)[C@]3(O)CC [Irinotecan] + CC1(C)CCC(c2ccc(Cl)cc2)=C(CN2CCN(c3ccc(C(=O)NS(=O)(=O)c4ccc(N[C@H](CCN5CCOCC5)CSc5ccccc5)c(S(=O)(=O)C(F)(F)F)c4)cc3)CC2)C1 [Navitoclax] (partner 0.5 µM)
Summary of the method: as §1

Cell Line: NCI-H1395
- relative viability (MK-8033 + Vorinostat; first compound 0.02 µM): 0.673
- relative viability (MK-8033 + Vorinostat; first compound 0.06325 µM): 0.673
- relative viability (MK-8033 + Vorinostat; first compound 0.2 µM): 0.638
- relative viability (MK-8033 + Vorinostat; first compound 0.6325 µM): 0.654
- relative viability (MK-8033 + Vorinostat; first compound 2 µM): 0.692
- relative viability (MK-8033 + Decitabine; first compound 0.02 µM): 0.68
- relative viability (MK-8033 + Decitabine; first compound 0.06325 µM): 0.701
- relative viability (MK-8033 + Decitabine; first compound 0.2 µM): 0.71
- relative viability (MK-8033 + Decitabine; first compound 0.6325 µM): 0.7
- relative viability (MK-8033 + Decitabine; first compound 2 µM): 0.693
- relative viability (MK-8033 + AZD7762; first compound 0.02 µM): 0.397
- relative viability (MK-8033 + AZD7762; first compound 0.06325 µM): 0.35
- relative viability (MK-8033 + AZD7762; first compound 0.2 µM): 0.381
- relative viability (MK-8033 + AZD7762; first compound 0.6325 µM): 0.383
- relative viability (MK-8033 + AZD7762; first compound 2 µM): 0.389
- relative viability (Irinotecan + Navitoclax; first compound 2 µM): 0.677
- relative viability (Irinotecan + Navitoclax; first compound 6.325 µM): 0.521
- relative viability (Irinotecan + Navitoclax; first compound 20 µM): 0.344

Cell Line: HCC-44
- relative viability (MK-8033 + Vorinostat; first compound 0.02 µM): 1.06
- relative viability (MK-8033 + Vorinostat; first compound 0.06325 µM): 1.14
- relative viability (MK-8033 + Vorinostat; first compound 0.2 µM): 1.09
- relative viability (MK-8033 + Vorinostat; first compound 0.6325 µM): 1.2
- relative viability (MK-8033 + Vorinostat; first compound 2 µM): 1.07
- relative viability (MK-8033 + Decitabine; first compound 0.02 µM): 0.95
- relative viability (MK-8033 + Decitabine; first compound 0.06325 µM): 0.933
- relative viability (MK-8033 + Decitabine; first compound 0.2 µM): 0.948
- relative viability (MK-8033 + Decitabine; first compound 0.6325 µM): 1.02
- relative viability (MK-8033 + Decitabine; first compound 2 µM): 0.954
- relative viability (MK-8033 + AZD7762; first compound 0.02 µM): 1.04
- relative viability (MK-8033 + AZD7762; first compound 0.06325 µM): 1.04
- relative viability (MK-8033 + AZD7762; first compound 0.2 µM): 0.994
- relative viability (MK-8033 + AZD7762; first compound 0.6325 µM): 1.06
- relative viability (MK-8033 + AZD7762; first compound 2 µM): 1.02
- relative viability (Irinotecan + Navitoclax; first compound 0.6325 µM): 0.904
- relative viability (Irinotecan + Navitoclax; first compound 2 µM): 0.232
- relative viability (Irinotecan + Navitoclax; first compound 6.325 µM): 0.231
- relative viability (Irinotecan + Navitoclax; first compound 20 µM): 0.27

Cell Line: NCI-H441
- relative viability (MK-8033 + Vorinostat; first compound 0.02 µM): 0.795
- relative viability (MK-8033 + Vorinostat; first compound 0.06325 µM): 0.738
- relative viability (MK-8033 + Vorinostat; first compound 0.2 µM): 0.823
- relative viability (MK-8033 + Vorinostat; first compound 0.6325 µM): 0.706
- relative viability (MK-8033 + Vorinostat; first compound 2 µM): 0.732
- relative viability (MK-8033 + Decitabine; first compound 0.02 µM): 0.237
- relative viability (MK-8033 + Decitabine; first compound 0.06325 µM): 0.237
- relative viability (MK-8033 + Decitabine; first compound 0.2 µM): 0.231
- relative viability (MK-8033 + Decitabine; first compound 0.6325 µM): 0.264
- relative viability (MK-8033 + Decitabine; first compound 2 µM): 0.238
- relative viability (MK-8033 + AZD7762; first compound 0.02 µM): 1
- relative viability (MK-8033 + AZD7762; first compound 0.06325 µM): 1.09
- relative viability (MK-8033 + AZD7762; first compound 0.2 µM): 1.24
- relative viability (MK-8033 + AZD7762; first compound 0.6325 µM): 0.984
- relative viability (MK-8033 + AZD7762; first compound 2 µM): 0.94
- relative viability (Irinotecan + Navitoclax; first compound 0.6325 µM): 0.206
- relative viability (Irinotecan + Navitoclax; first compound 2 µM): 0.383
- relative viability (Irinotecan + Navitoclax; first compound 6.325 µM): 0.304
- relative viability (Irinotecan + Navitoclax; first compound 20 µM): 0.463

Cell Line: Calu-6
- relative viability (Irinotecan + Navitoclax; first compound 0.6325 µM): 0.78
- relative viability (Irinotecan + Navitoclax; first compound 2 µM): 0.431
- relative viability (Irinotecan + Navitoclax; first compound 6.325 µM): 0.212
- relative viability (Irinotecan + Navitoclax; first compound 20 µM): 0.0896

Cell Line: CAL-12T
- relative viability (MK-8033 + Vorinostat; first compound 0.02 µM): 0.797
- relative viability (MK-8033 + Vorinostat; first compound 0.06325 µM): 0.709
- relative viability (MK-8033 + Vorinostat; first compound 0.2 µM): 0.81
- relative viability (MK-8033 + Vorinostat; first compound 0.6325 µM): 0.775
- relative viability (MK-8033 + Vorinostat; first compound 2 µM): 0.673
- relative viability (MK-8033 + AZD7762; first compound 0.02 µM): 0.594
- relative viability (MK-8033 + AZD7762; first compound 0.06325 µM): 0.66
- relative viability (MK-8033 + AZD7762; first compound 0.2 µM): 0.59
- relative viability (MK-8033 + AZD7762; first compound 0.6325 µM): 0.573
- relative viability (MK-8033 + AZD7762; first compound 2 µM): 0.567
- relative viability (Irinotecan + Navitoclax; first compound 0.6325 µM): 1.32
- relative viability (Irinotecan + Navitoclax; first compound 2 µM): 1.43
- relative viability (Irinotecan + Navitoclax; first compound 6.325 µM): 0.491
- relative viability (Irinotecan + Navitoclax; first compound 20 µM): 0.38

Cell Line: HCC-78
- relative viability (MK-8033 + Vorinostat; first compound 0.02 µM): 0.401
- relative viability (MK-8033 + Vorinostat; first compound 0.06325 µM): 0.399
- relative viability (MK-8033 + Vorinostat; first compound 0.2 µM): 0.539
- relative viability (MK-8033 + Vorinostat; first compound 0.6325 µM): 0.262
- relative viability (MK-8033 + Vorinostat; first compound 2 µM): 0.455
- relative viability (MK-8033 + Decitabine; first compound 0.02 µM): 0.657
- relative viability (MK-8033 + Decitabine; first compound 0.06325 µM): 0.728
- relative viability (MK-8033 + Decitabine; first compound 0.2 µM): 0.645
- relative viability (MK-8033 + Decitabine; first compound 0.6325 µM): 0.559
- relative viability (MK-8033 + Decitabine; first compound 2 µM): 0.692
- relative viability (MK-8033 + AZD7762; first compound 0.02 µM): 0.712
- relative viability (MK-8033 + AZD7762; first compound 0.06325 µM): 0.517
- relative viability (MK-8033 + AZD7762; first compound 0.2 µM): 0.719
- relative viability (MK-8033 + AZD7762; first compound 0.6325 µM): 0.557
- relative viability (MK-8033 + AZD7762; first compound 2 µM): 0.566
- relative viability (Irinotecan + Navitoclax; first compound 0.6325 µM): 0.75
- relative viability (Irinotecan + Navitoclax; first compound 2 µM): 0.525
- relative viability (Irinotecan + Navitoclax; first compound 6.325 µM): 0.202
- relative viability (Irinotecan + Navitoclax; first compound 20 µM): 0.191

Cell Line: NCI-H2170
- relative viability (MK-8033 + Vorinostat; first compound 0.02 µM): 0.802
- relative viability (MK-8033 + Vorinostat; first compound 0.06325 µM): 0.882
- relative viability (MK-8033 + Vorinostat; first compound 0.2 µM): 0.691
- relative viability (MK-8033 + Vorinostat; first compound 0.6325 µM): 0.768
- relative viability (MK-8033 + Vorinostat; first compound 2 µM): 0.79
- relative viability (MK-8033 + Decitabine; first compound 0.02 µM): 0.461
- relative viability (MK-8033 + Decitabine; first compound 0.06325 µM): 0.405
- relative viability (MK-8033 + Decitabine; first compound 0.2 µM): 0.458
- relative viability (MK-8033 + Decitabine; first compound 0.6325 µM): 0.479
- relative viability (MK-8033 + Decitabine; first compound 2 µM): 0.468
- relative viability (MK-8033 + AZD7762; first compound 0.02 µM): 0.733
- relative viability (MK-8033 + AZD7762; first compound 0.06325 µM): 0.768
- relative viability (MK-8033 + AZD7762; first compound 0.2 µM): 0.829
- relative viability (MK-8033 + AZD7762; first compound 0.6325 µM): 0.828
- relative viability (MK-8033 + AZD7762; first compound 2 µM): 0.848
- relative viability (Irinotecan + Navitoclax; first compound 0.6325 µM): 0.52
- relative viability (Irinotecan + Navitoclax; first compound 2 µM): 0.348
- relative viability (Irinotecan + Navitoclax; first compound 6.325 µM): 0.308
- relative viability (Irinotecan + Navitoclax; first compound 20 µM): 0.192

Cell Line: COR-L 105
- relative viability (MK-8033 + Vorinostat; first compound 0.02 µM): 0.88
- relative viability (MK-8033 + Vorinostat; first compound 0.06325 µM): 0.891
- relative viability (MK-8033 + Vorinostat; first compound 0.2 µM): 0.708
- relative viability (MK-8033 + Vorinostat; first compound 0.6325 µM): 0.782
- relative viability (MK-8033 + Vorinostat; first compound 2 µM): 0.547
- relative viability (MK-8033 + Decitabine; first compound 0.02 µM): 0.659
- relative viability (MK-8033 + Decitabine; first compound 0.06325 µM): 0.556
- relative viability (MK-8033 + Decitabine; first compound 0.2 µM): 0.619
- relative viability (MK-8033 + Decitabine; first compound 0.6325 µM): 0.689
- relative viability (MK-8033 + Decitabine; first compound 2 µM): 0.691
- relative viability (Irinotecan + Navitoclax; first compound 0.6325 µM): 0.721
- relative viability (Irinotecan + Navitoclax; first compound 2 µM): 0.766
- relative viability (Irinotecan + Navitoclax; first compound 6.325 µM): 0.529
- relative viability (Irinotecan + Navitoclax; first compound 20 µM): 0.463
